The text below walks through data of patent publication US9290536B2, “C4 monomethyl triterpenoid derivatives and methods of use thereof” (Reata Pharmaceuticals, Inc., priority 2011, dated 2016).

The test system of the test is IFNγ-induced NO production in RAW264.7. The experiment in a line: Suppression of IFNγ-induced NO production in RAW264.7 mouse macrophages (Griess reagent, normalized to WST-1 cell viability). The format is cell-based. The conditions noted are these: RAW264.7 cells, 2 h pre-treatment with drug (0-200 nM), then IFNγ for 24 h. On the procedure:
Nitric Oxide Production and Cell Viability. […] On the next day, cells were pre-treated with DMSO or drug (0-200 nM dose range) for 2 hours, and then treated with recombinant mouse IFNγ (R&D Systems) for 24 hours. Nitric Oxide concentration in media was determined using the Griess reagent system (Promega). Cell viability was determined using WST-1 reagent (Roche). IC50 values were determined based on the suppression of IFNγ induced Nitric Oxide production normalized to cell viability.
In general, IC50 refers to the point on the concentration scale where inhibition reaches its midpoint. Take `CCCCCCC(=O)N[C@]12CCC(C)(C)C[C@H]1[C@H]1C(=O)C=C3[C@@]4(C)C=C(C#N)C(=O)[C@@H](C)[C@@H]4CC[C@@]3(C)[C@]1(C)CC2` [TX63865]: the IC50 was found to be 9.4 nM. In the case of `C[C@@H]1C(=O)C(C#N)=C[C@]2(C)C3=CC(=O)[C@@H]4[C@@H]5CC(C)(C)CC[C@]5(NC(=O)C5CC5)CC[C@@]4(C)[C@]3(C)CC[C@@H]12` [TX63866], the IC50 is 1.4 nM. For `COC(=O)CC[C@]12CCC(C)(C)C[C@H]1[C@H]1C(=O)C=C3[C@@]4(C)C=C(C#N)C(=O)[C@@H](C)[C@@H]4CC[C@@]3(C)[C@]1(C)CC2` [TX63867], the IC50 came to 1.3 nM. The value for `C[C@@H]1C(=O)C(C#N)=C[C@]2(C)C3=CC(=O)[C@@H]4[C@@H]5CC(C)(C)CC[C@@H]5CC[C@@]4(C)[C@]3(C)CC[C@@H]12` [TX63869] was 3.8 nM. With `COC(=O)[C@]12CCC(C)(C)C[C@H]1[C@@]1(O)C(=O)C=C3[C@@]4(C)C=C(C#N)C(=O)[C@@H](C)[C@@H]4CC[C@@]3(C)[C@]1(C)CC2` [TX63870] the figure was 1.1 nM; with `C[C@@H]1C(=O)C(C#N)=C[C@]2(C)C3=CC(=O)[C@@H]4[C@@H]5CC(C)(C)CC[C@]5(NC(=O)N(C)C)CC[C@@]4(C)[C@]3(C)CC[C@@H]12` [TX63875], 1.3 nM. The value for `CNC(=O)N[C@]12CCC(C)(C)C[C@H]1[C@H]1C(=O)C=C3[C@@]4(C)C=C(C#N)C(=O)[C@@H](C)[C@@H]4CC[C@@]3(C)[C@]1(C)CC2` [TX63876] was 7.3 nM; that for `CCCCNC(=O)[C@]12CCC(C)(C)C[C@H]1[C@H]1C(=O)C=C3[C@@]4(C)C=C(C#N)C(=O)[C@@H](C)[C@@H]4CC[C@@]3(C)[C@]1(C)CC2` [TX63877] was 1.3 nM; that for `C[C@@H]1C(=O)C(C#N)=C[C@]2(C)C3=CC(=O)[C@@H]4[C@@H]5CC(C)(C)CC[C@]5(C(=O)N(C)C)CC[C@@]4(C)[C@]3(C)CC[C@@H]12` [TX63878] was 1.4 nM. With `C[C@@H]1C(=O)C(C#N)=C[C@]2(C)C3=CC(=O)[C@@H]4[C@@H]5CC(C)(C)CC[C@]5(C(=O)N5CCCCC5)CC[C@@]4(C)[C@]3(C)CC[C@@H]12` [TX63880], the IC50 was determined as 1.6 nM. With `C[C@@H]1C(=O)C(C#N)=C[C@]2(C)C3=CC(=O)[C@@H]4[C@@H]5CC(C)(C)CC[C@]5(C(=O)N5CCOCC5)CC[C@@]4(C)[C@]3(C)CC[C@@H]12` [TX63881] the figure was 0.9 nM.

Consider `CONC(=O)[C@]12CCC(C)(C)C[C@H]1[C@H]1C(=O)C=C3[C@@]4(C)C=C(C#N)C(=O)[C@@H](C)[C@@H]4CC[C@@]3(C)[C@]1(C)CC2` [TX63882], for which the IC50 worked out at 1.6 nM.

Consider `CNC(=O)CC[C@]12CCC(C)(C)C[C@H]1[C@H]1C(=O)C=C3[C@@]4(C)C=C(C#N)C(=O)[C@@H](C)[C@@H]4CC[C@@]3(C)[C@]1(C)CC2` [TX63886], for which the IC50 came to 0.3 nM. With `C[C@@H]1C(=O)C(C#N)=C[C@]2(C)C3=CC(=O)[C@@H]4[C@@H]5CC(C)(C)CC[C@]5(CCC(=O)NCC(F)(F)F)CC[C@@]4(C)[C@]3(C)CC[C@@H]12` [TX63887] the figure was 0.8 nM; with `C[C@@H]1C(=O)C(C#N)=C[C@]2(C)C3=CC(=O)[C@@H]4[C@@H]5CC(C)(C)CC[C@]5(CCC(=O)N5CCOCC5)CC[C@@]4(C)[C@]3(C)CC[C@@H]12` [TX63888], 0.3 nM; with `C[C@@H]1C(=O)C(C#N)=C[C@]2(C)C3=CC(=O)[C@@H]4[C@@H]5CC(C)(C)CC[C@]5(CCC(=O)N5CCC5)CC[C@@]4(C)[C@]3(C)CC[C@@H]12` [TX63889], 0.4 nM. The value for `C[C@@H]1C(=O)C(C#N)=C[C@]2(C)C3=CC(=O)[C@@H]4[C@@H]5CC(C)(C)CC[C@]5(CCC(=O)N5CCC(F)(F)C5)CC[C@@]4(C)[C@]3(C)CC[C@@H]12` [TX63890] was 0.8 nM; that for `C[C@@H]1C(=O)C(C#N)=C[C@]2(C)C3=CC(=O)[C@@H]4[C@@H]5CC(C)(C)CC[C@]5(CCC(=O)O)CC[C@@]4(C)[C@]3(C)CC[C@@H]12` [TX63891] was 1.3 nM; that for `CCNC(=O)CC[C@]12CCC(C)(C)C[C@H]1[C@H]1C(=O)C=C3[C@@]4(C)C=C(C#N)C(=O)[C@@H](C)[C@@H]4CC[C@@]3(C)[C@]1(C)CC2` [TX63892] was 0.3 nM. `C[C@@H]1C(=O)C(C#N)=C[C@]2(C)C3=CC(=O)[C@@H]4[C@@H]5CC(C)(C)CC[C@]5(CCC(=O)N5CCCC5)CC[C@@]4(C)[C@]3(C)CC[C@@H]12` [TX63893]: the IC50 came out at 0.5 nM. The value for `CCOC(=O)[C@]12CCC(C)(C)C[C@H]1[C@@]1(O)C(=O)C=C3[C@@]4(C)C=C(C#N)C(=O)[C@@H](C)[C@@H]4CC[C@@]3(C)[C@]1(C)CC2` [TX63901] was 1.3 nM. Turning to `C[C@@H]1C(=O)C(C#N)=C[C@]2(C)C3=C[C@@H](O)[C@]4(O)[C@@H]5CC(C)(C)CC[C@]5(CO)CC[C@@]4(C)[C@]3(C)CC[C@@H]12` [TX63904], the IC50 was determined as 10.4 nM. Take `C[C@@H]1C(=O)C(C#N)=C[C@]2(C)C3=CC(F)[C@]45OC(=O)[C@@]6(CCC(C)(C)C[C@H]64)CC[C@@]5(C)[C@]3(C)CC[C@@H]12` (stereo partly drawn) [TX63907]: the IC50 was found to be 1.6 nM. The value for `C[C@@H]1C(=O)C(C#N)=C[C@]2(C)C3=CC(=O)[C@]4(O)[C@@H]5CC(C)(C)CC[C@]5(CO)CC[C@@]4(C)[C@]3(C)CC[C@@H]12` [TX63908] was 0.6 nM. Consider `CC(=O)OC[C@]12CCC(C)(C)C[C@H]1[C@@]1(O)C(=O)C=C3[C@@]4(C)C=C(C#N)C(=O)[C@@H](C)[C@@H]4CC[C@@]3(C)[C@]1(C)CC2` [TX63909], for which the IC50 came out at 1.4 nM.

Regarding `C=C1C(O)=C(C#N)C[C@]2(C)C3=CC(=O)[C@@H]4[C@@H]5CC(C)(C)CC[C@]5(C(=O)OC)CC[C@@]4(C)[C@]3(C)CC[C@@H]12` [TX63910], the IC50 stood at 304 nM. The value for `C=C1C(=O)C(C#N)=C[C@]2(C)C3=CC(=O)[C@@H]4[C@@H]5CC(C)(C)CC[C@]5(C(=O)OC)CC[C@@]4(C)[C@]3(C)CC[C@@H]12` [TX63911] was 10 nM. The value for `C[C@@H]1C(=O)C(C#N)=C[C@]2(C)C3=CC(=O)[C@@H]4[C@@H]5CC(C)(C)CC[C@]5(CCC(=O)NC5COC5)CC[C@@]4(C)[C@]3(C)CC[C@@H]12` [TX63914] was 0.4 nM; that for `CC(=O)NNC(=O)CC[C@]12CCC(C)(C)C[C@H]1[C@H]1C(=O)C=C3[C@@]4(C)C=C(C#N)C(=O)[C@@H](C)[C@@H]4CC[C@@]3(C)[C@]1(C)CC2` [TX63915] was 4 nM.

For the compound `Cc1nnc(CC[C@]23CCC(C)(C)C[C@H]2[C@H]2C(=O)C=C4[C@@]5(C)C=C(C#N)C(=O)[C@@H](C)[C@@H]5CC[C@@]4(C)[C@]2(C)CC3)o1` [TX63916], the IC50 was found to be 0.4 nM. The value for `C[C@@H]1C(=O)C(C#N)=C[C@]2(C)C3=CC(=O)[C@@H]4[C@@H]5CC(C)(C)CC[C@]5(CCCO)CC[C@@]4(C)[C@]3(C)CC[C@@H]12` [TX63918] was 0.5 nM. The value for `COCCC[C@]12CCC(C)(C)C[C@H]1[C@H]1C(=O)C=C3[C@@]4(C)C=C(C#N)C(=O)[C@@H](C)[C@@H]4CC[C@@]3(C)[C@]1(C)CC2` [TX63919] was 1.4 nM. The value for `CC(=O)OCCC[C@]12CCC(C)(C)C[C@H]1[C@H]1C(=O)C=C3[C@@]4(C)C=C(C#N)C(=O)[C@@H](C)[C@@H]4CC[C@@]3(C)[C@]1(C)CC2` [TX63920] was 0.9 nM. Turning to `C[C@@H]1C(=O)C(C#N)=C[C@]2(C)C3=C[C@@H](O)[C@@H]4[C@@H]5CC(C)(C)CC[C@]5(CO)CC[C@@]4(C)[C@]3(C)CC[C@@H]12` [TX63923], the concentration for half-maximal inhibition (IC50) came to 2.5 nM.

As to `C[C@@H]1C(=O)C(C#N)=C[C@]2(C)C3=CC(=O)[C@@H]4[C@@H]5CC(C)(C)CC[C@]5(O)CC[C@@]4(C)[C@]3(C)CC[C@@H]12` [TX63925], the IC50 was 0.4 nM. With `CC(=O)O[C@]12CCC(C)(C)C[C@H]1[C@H]1C(=O)C=C3[C@@]4(C)C=C(C#N)C(=O)[C@@H](C)[C@@H]4CC[C@@]3(C)[C@]1(C)CC2` [TX63928] the figure was 0.6 nM. With `C[C@@H]1C(=O)C(C#N)=C[C@]2(C)C3=CC(=O)[C@@H]4[C@@H]5CC(C)(C)CC[C@]5(OC(N)=O)CC[C@@]4(C)[C@]3(C)CC[C@@H]12` [TX63929] the figure was 0.5 nM; with `C[C@@H]1C(=O)C(C#N)=C[C@]2(C)C3=CC(=O)[C@@H]4[C@@H]5CC(C)(C)CC[C@]5(F)CC[C@@]4(C)[C@]3(C)CC[C@@H]12` [TX63936], 1.1 nM. For the compound `CCNC(=O)OCCC[C@]12CCC(C)(C)C[C@H]1[C@H]1C(=O)C=C3[C@@]4(C)C=C(C#N)C(=O)[C@@H](C)[C@@H]4CC[C@@]3(C)[C@]1(C)CC2` [TX63982], the IC50 was determined as 3.5 nM.
